The results in this text go back to ChEMBL document CHEMBL4402585 (J Med Chem, 2020).

Where only a bound is given, the exact number is not on record here.

One series relates to MV4-11. Kind of series: Antiproliferative activity against human MV4-11 cells assessed as reduction in cell viability measured after 72 hrs by Celltitre-glo luminescence assay. It is filed as functional, cell-based. The conditions noted are these: MV4-11, 72 h.
Series [1] concerns the target T1, Bromodomain-containing protein 4 (Homo sapiens, UniProt O60885).
Description: Binding affinity to N-terminal His6-tagged BRD4 bromodomain 1 (49 to 170 residues) (unknown origin) expressed in Escherichia coli BL21 (DE3) assessed as change in melting temperature at 1:100 molar ratio by SYPRO orange dye based fluorescence thermal shift assay
The target of series [2] is Histone acetyltransferase p300 (Homo sapiens, UniProt Q09472). Kind of series: Inhibition of MSGRGK(Ac)-GGK(Ac)GLGK(Ac)GGAKRHR-biotin binding to EP300 (1040 to 1160 residues) (unknown origin) expressed in Escherichia coli BL21 (DE3) by Alphascreen assay. On the technique in general: In Alpha technology, singlet oxygen from a donor bead excites a nearby acceptor bead.
Chain of Histone acetyltransferase p300 (Q09472 whole entry, the tested form may be a part): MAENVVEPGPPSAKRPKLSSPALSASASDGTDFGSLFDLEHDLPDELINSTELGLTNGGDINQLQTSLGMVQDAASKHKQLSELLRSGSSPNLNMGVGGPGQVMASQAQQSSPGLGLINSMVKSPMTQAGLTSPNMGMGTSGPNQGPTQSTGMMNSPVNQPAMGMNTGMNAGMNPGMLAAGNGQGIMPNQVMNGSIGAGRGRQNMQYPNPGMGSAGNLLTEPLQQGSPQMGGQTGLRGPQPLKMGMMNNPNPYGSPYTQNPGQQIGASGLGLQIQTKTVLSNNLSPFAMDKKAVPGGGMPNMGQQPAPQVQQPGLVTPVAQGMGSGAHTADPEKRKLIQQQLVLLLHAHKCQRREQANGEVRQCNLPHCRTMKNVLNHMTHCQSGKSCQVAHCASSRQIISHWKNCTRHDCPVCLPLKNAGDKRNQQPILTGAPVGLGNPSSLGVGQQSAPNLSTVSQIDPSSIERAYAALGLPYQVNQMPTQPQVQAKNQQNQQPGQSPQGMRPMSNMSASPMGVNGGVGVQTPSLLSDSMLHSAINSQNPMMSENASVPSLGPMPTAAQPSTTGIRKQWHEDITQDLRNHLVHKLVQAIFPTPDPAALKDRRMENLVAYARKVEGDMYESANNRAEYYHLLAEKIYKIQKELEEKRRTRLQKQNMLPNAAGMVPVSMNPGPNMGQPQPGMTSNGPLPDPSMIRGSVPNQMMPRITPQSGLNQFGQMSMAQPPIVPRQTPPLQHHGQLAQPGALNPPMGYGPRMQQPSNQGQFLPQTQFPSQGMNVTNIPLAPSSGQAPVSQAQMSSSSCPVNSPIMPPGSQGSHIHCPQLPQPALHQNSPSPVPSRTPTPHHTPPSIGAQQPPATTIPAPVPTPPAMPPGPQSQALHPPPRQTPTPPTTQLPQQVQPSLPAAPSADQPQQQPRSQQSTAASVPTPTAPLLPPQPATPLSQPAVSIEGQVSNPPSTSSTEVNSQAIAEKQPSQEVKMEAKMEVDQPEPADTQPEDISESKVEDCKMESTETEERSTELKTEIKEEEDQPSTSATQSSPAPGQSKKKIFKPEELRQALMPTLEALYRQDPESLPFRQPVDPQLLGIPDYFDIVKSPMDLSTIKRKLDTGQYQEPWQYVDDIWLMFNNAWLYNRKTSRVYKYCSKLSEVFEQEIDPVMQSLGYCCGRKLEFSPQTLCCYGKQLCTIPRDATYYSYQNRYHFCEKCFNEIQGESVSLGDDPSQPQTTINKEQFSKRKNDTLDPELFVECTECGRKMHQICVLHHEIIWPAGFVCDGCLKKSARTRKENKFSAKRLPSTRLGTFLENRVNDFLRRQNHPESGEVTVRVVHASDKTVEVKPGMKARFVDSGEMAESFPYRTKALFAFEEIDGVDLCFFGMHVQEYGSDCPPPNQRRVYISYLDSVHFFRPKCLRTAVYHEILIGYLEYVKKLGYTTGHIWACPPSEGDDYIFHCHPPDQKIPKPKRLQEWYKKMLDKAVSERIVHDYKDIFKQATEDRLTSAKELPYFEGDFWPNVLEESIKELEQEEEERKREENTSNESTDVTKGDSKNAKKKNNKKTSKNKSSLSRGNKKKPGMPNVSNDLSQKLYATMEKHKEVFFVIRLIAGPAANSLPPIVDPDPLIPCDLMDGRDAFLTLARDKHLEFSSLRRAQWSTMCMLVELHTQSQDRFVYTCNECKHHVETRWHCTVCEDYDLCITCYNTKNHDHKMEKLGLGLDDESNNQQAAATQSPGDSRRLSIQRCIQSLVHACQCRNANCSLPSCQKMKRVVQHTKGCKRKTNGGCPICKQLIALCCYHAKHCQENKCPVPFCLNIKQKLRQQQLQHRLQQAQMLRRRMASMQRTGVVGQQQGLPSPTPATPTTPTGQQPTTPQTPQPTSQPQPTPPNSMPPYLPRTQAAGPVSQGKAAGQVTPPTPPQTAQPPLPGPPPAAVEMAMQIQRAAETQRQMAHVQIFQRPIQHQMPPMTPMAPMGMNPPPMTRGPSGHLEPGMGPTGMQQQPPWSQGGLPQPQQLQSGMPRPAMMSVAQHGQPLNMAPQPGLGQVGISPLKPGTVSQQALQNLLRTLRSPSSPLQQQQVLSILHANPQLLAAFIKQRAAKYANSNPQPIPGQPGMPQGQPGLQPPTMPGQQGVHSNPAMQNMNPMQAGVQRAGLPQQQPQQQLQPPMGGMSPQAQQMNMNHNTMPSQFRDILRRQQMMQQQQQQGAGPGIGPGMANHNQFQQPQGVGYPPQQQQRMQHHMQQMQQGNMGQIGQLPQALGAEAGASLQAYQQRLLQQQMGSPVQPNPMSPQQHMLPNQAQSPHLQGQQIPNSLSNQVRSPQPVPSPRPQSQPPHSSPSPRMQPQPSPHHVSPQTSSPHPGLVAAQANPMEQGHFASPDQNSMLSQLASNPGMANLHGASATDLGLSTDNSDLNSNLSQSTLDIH
In series [3] the target is T1, Bromodomain-containing protein 4. Kind of series: Inhibition of SGRG-K(Ac)-GG-K(Ac)-GLG-K(Ac)-GGA-K(Ac)-RHRKVGG-K-Biotin binding to N-terminal His6-tagged BRD4 bromodomain 1 (49 to 170 residues) (unknown origin) expressed in Escherichia coli BL21 (DE3) preincubated for 15 mins followed by biotin-labeled H4 peptide addition and measured after 10 mins by Alphascreen assay.

Series [4] shares this target. Description: Inhibition of SGRG-K(Ac)-GG-K(Ac)-GLG-K(Ac)-GGA-K(Ac)-RHRKVGG-K-Biotin binding to N-terminal His6-tagged BRD4 bromodomain 2 (344 to 455 residues) (unknown origin) expressed in Escherichia coli BL21 (DE3) preincubated for 15 mins followed by biotin-labeled H4 peptide addition and measured after 10 mins by Alphascreen assay.
Series [5] can be described thus: Half life in rat liver microsomes at 0.1 uM preincubated for 10 mins followed by NADPH addition and measured up to 60 mins by LC-MS/MS analysis. It counts as ADME, Microsome. (In general: Microsomes from liver hold many membrane-bound enzymes, among them those of drug oxidation.)
A short description of series [6]: Clearance in human liver microsomes at 0.1 uM preincubated for 10 mins followed by NADPH addition and measured up to 60 mins by LC-MS/MS analysis. It is filed as ADME, Microsome. The settings on record: 1 h.
Series [7] can be described thus: Clearance in rat liver microsomes at 0.1 uM preincubated for 10 mins followed by NADPH addition and measured up to 60 mins by LC-MS/MS analysis. The settings on record: 1 h. It is filed as ADME, Microsome.
A short description of series [8]: Half life in human liver microsomes at 0.1 uM preincubated for 10 mins followed by NADPH addition and measured up to 60 mins by LC-MS/MS analysis. It counts as ADME, Microsome.
Series [9] is described as follows: Clearance in mouse liver microsomes at 0.1 uM preincubated for 10 mins followed by NADPH addition and measured up to 60 mins by LC-MS/MS analysis. It is filed as ADME, Microsome. The conditions noted are these: 1 h.
Series [10] can be described thus: Half life in mouse liver microsomes at 0.1 uM preincubated for 10 mins followed by NADPH addition and measured up to 60 mins by LC-MS/MS analysis. It is filed as ADME, Microsome.

For orientation: IC50 means the midpoint of a concentration-inhibition curve. As a reminder, the ΔTm is the shift of the melting midpoint relative to a reference. Regarding `Cc1cc(-c2cc(NS(C)(=O)=O)cnc2Oc2ccc(F)cc2F)n2cc[nH]c(=O)c12`, the values for the IC50 (with MV4-11; in series [2]) were 537 nM and above 5 µM, respectively. In [1], the ΔTm is above 1 °C.

As for `Cc1cc(-c2cc(NS(C)(=O)=O)ccc2Oc2ccccc2)n2ccn(C)c(=O)c12`, the IC50 in series [3] and in series [4] was above 2000 nM throughout. Besides, the ΔTm in series [1] was above 1 °C.

A word on the half-life: it is the time needed for the level to fall by half in the phase considered. A low value points to fast loss. With `Cc1cc(-c2cc(NS(C)(=O)=O)ccc2Oc2ccc(F)cc2F)n2cc[nH]c(=O)c12`, the IC50 with MV4-11 stood at 36.6 nM; in series [2], 17.8 µM. The half-life at 0.1 µM in series [5] is 6.4 min; in series [8] it was 58.1 min; in series [10] it was 14.9 min. The Microsomal intrinsic clearance in series [6] stood at 36.2 mL/min/g; in series [9] it was 141 mL/min/g. Besides, in [7], the Intrinsic clearance is 327 mL/min/g. In addition, in series [1], the ΔTm is above 1 °C.

Consider `Cc1cc(-c2cc(S(=O)(=O)N(C)C)cnc2Oc2ccc(F)cc2F)n2cc[nH]c(=O)c12`, for which the IC50 in series [3] was 740 nM; in series [4], 772 nM; in series [2], above 100 µM. The ΔTm in series [1] was above 1 °C.

For the compound `Cc1cc(-c2cc(NS(C)(=O)=O)ccc2OC2CCOCC2)n2cc[nH]c(=O)c12`, the results for the IC50 (with MV4-11; in series [2]) were 387 nM and above 33 µM, respectively. For the same compound, the ΔTm in [1] was above 1 °C.

In the case of `Cc1cc(-c2cc(S(=O)(=O)NC(C)(C)C)cnc2Oc2ccc(F)cc2F)n2cc[nH]c(=O)c12`, the values for the IC50 in series [3], in series [4] and in [2] were 788 nM, 478 nM and above 100 µM, respectively. The ΔTm in [1] was above 1 °C.

`Cc1cc(-c2ccccc2Oc2ccccc2)n2cc[nH]c(=O)c12`: the IC50 turned out to be 4500 nM in [3] and 1600 nM in series [4]. Further, the ΔTm in series [1] is above 1 °C.

For the compound `Cc1cc(-c2cc(NS(C)(=O)=O)ccc2Oc2ccccc2)n2cc[nH]c(=O)c12`, the results for the IC50 (in the series on MV4-11; in [2]) were 20.4 nM and 25.1 µM, respectively. The results for the half-life at 0.1 µM in series [5], in series [8] and in series [10] were 0.7 min, 28.4 min and 18.1 min, respectively. Moreover, the Microsomal intrinsic clearance was 74 mL/min/g in [6] and 116 mL/min/g in series [9]. This compound also returned an Intrinsic clearance in series [7] of 3039 mL/min/g. The ΔTm in series [1] is above 1 °C.

With `Cc1cc(-c2cc(NS(C)(=O)=O)ccc2Oc2ccc(Cl)cc2)n2cc[nH]c(=O)c12`, the IC50 with MV4-11 amounted to 118 nM; in series [3], 128 nM; in series [4] it was 178 nM; in [2], 57 µM. In series [1], the ΔTm is above 1 °C.

`Cc1cc(Br)n2cc[nH]c(=O)c12`: the ΔTm in series [1] amounted to 1.9 °C.

Take `CC(=O)Nc1ccc(Oc2ccc(F)cc2F)c(-c2cc(C)c3c(=O)[nH]ccn23)c1`: the IC50 in series [3] was 219 nM; in series [4] it was 97.9 nM; in [2] it was above 100 µM. The ΔTm in [1] is above 1 °C.

With `Cc1cc(-c2cc(NS(C)(=O)=O)ccc2Nc2ccccc2)n2cc[nH]c(=O)c12`, the IC50 in the series on MV4-11 was 257 nM; in series [3], 68 nM; in series [4], 28.4 nM; in [2] it was above 33 µM. The ΔTm in [1] was above 1 °C.

For `Cc1cc(-c2cc(NS(C)(=O)=O)ccc2OC2CCCCC2)n2cc[nH]c(=O)c12`, the IC50 came out at 4.9 nM with MV4-11 and 5.4 µM in [2]. Besides, the half-life at 0.1 µM was 0.9 min in [5], 2.7 min in series [8] and 6.3 min in [10]. Further, the Microsomal intrinsic clearance is 752 mL/min/g in series [6] and 333 mL/min/g in series [9]. The same compound registered an Intrinsic clearance in series [7] of 2137 mL/min/g. Besides, in [1], the ΔTm was above 1 °C.

As to `Cc1cc(-c2cc(S(=O)(=O)NC(C)(C)C)ccc2Oc2ccc(F)cc2F)n2cc[nH]c(=O)c12`, the IC50 in series [3] is 438 nM; in series [4], 420 nM; in [2], above 100 µM. Moreover, the ΔTm in [1] is above 1 °C.

Regarding `Cc1cc(-c2cc(S(=O)(=O)N(C)C)ccc2Oc2ccc(F)cc2F)n2cc[nH]c(=O)c12`, the IC50 in [3] is 198 nM; in series [4] it was 71.3 nM; in series [2] it was above 100 µM. In addition, the ΔTm in series [1] is above 1 °C.

Take `Cc1cc(-c2cc(CS(C)(=O)=O)ccc2Oc2ccc(F)cc2F)n2cc[nH]c(=O)c12`: the results for the 50% inhibitory concentration (IC50) (in the series on MV4-11; in series [2]) were 14.8 nM and 16.5 µM, respectively. For the same compound, the half-life at 0.1 µM in series [5] stood at 18.8 min; in series [8] it was 18.2 min; in series [10] it was 5.5 min. The Microsomal intrinsic clearance in series [6] worked out at 115 mL/min/g; in series [9], 380 mL/min/g. In series [7], the Intrinsic clearance came out at 112 mL/min/g. In addition, the ΔTm in series [1] was above 1 °C.

For the compound `Cc1cc(-c2cc(NS(C)(=O)=O)ccc2Sc2ccccc2)n2cc[nH]c(=O)c12`, the ΔTm in [1] was above 1 °C. Also, the IC50 in series [2] is above 100 µM.

Regarding `Cc1cc(-c2cc(S(C)(=O)=O)cnc2Oc2ccc(F)cc2F)n2cc[nH]c(=O)c12`, the IC50 is 288 nM in series [3], 229 nM in [4] and above 33 µM in [2]. For the same compound, the ΔTm in series [1] was above 1 °C.

With `Cc1cc(-c2cc(NS(C)(=O)=O)ccc2OCC(C)(C)C)n2cc[nH]c(=O)c12`, the IC50 was above 1000 nM in [3], 669 nM in series [4] and 26.9 µM in [2]. In addition, in [1], the ΔTm is above 1 °C.

Consider `Cc1cc(-c2cc(NS(C)(=O)=O)ccc2Oc2ccccc2)n2c1C(=O)NCC2`, for which the figures for the 50% inhibitory concentration (IC50) in [3], in series [4] and in series [2] were 76 nM, 130 nM and 34.7 µM, respectively.

With `Cc1cc(-c2cc(NS(C)(=O)=O)ccc2Oc2ccccn2)n2cc[nH]c(=O)c12`, the IC50 came to 211 nM in the series on MV4-11, 27.3 nM in series [3], 25.9 nM in series [4] and 12.6 µM in [2]. For the same compound, in [1], the ΔTm was above 1 °C.

Take `Cc1cc(-c2cc(S(C)(=O)=O)ccc2Oc2ccc(F)cc2F)n2cc[nH]c(=O)c12`: the IC50 in series [3] is 134 nM; in series [4], 117 nM; in series [2], above 33 µM. For the same compound, in [1], the ΔTm was above 1 °C.

As for `Cc1cc(-c2cc(NS(C)(=O)=O)ccc2OCC2CC2)n2cc[nH]c(=O)c12`, the IC50 in the series on MV4-11 was determined as 185 nM; in series [3], 78.6 nM; in series [4], 77.2 nM; in series [2], 25.1 µM. The ΔTm in [1] is above 1 °C.

On to `Cc1cc(-c2cc(NS(C)(=O)=O)ccc2Cc2ccccc2)n2cc[nH]c(=O)c12`, for which the IC50 is above 1000 nM in series [3], above 1000 nM in series [4] and 15.6 µM in series [2]. Further, the ΔTm in [1] was above 1 °C.

Turning to `CCS(=O)(=O)Nc1ccc(Oc2ccc(F)cc2F)c(-c2cc(C)c3c(=O)[nH]ccn23)c1`, the values for the IC50 (in the series on MV4-11; in series [2]) were 14.5 nM and 4 µM, respectively. Further, the half-life at 0.1 µM turned out to be 7.9 min in series [5], 33.9 min in series [8] and 9.1 min in [10]. The Microsomal intrinsic clearance in [6] was found to be 62 mL/min/g; in series [9], 229 mL/min/g. This compound registered an Intrinsic clearance in series [7] of 264 mL/min/g. Moreover, the ΔTm in series [1] was above 1 °C.
